Our source for the IC50 values is patent US8518944B2, “Compounds as casein kinase inhibitors” (Pfizer Inc., priority 2009, dated 2013).

One test deals with CK1δ (Homo sapiens, UniProt P48730). Description: CK1δ kinase assay (Kinase-Glo luminescence). It counts as biochemical. Particulars: ATP 10 μM, CK1δ enzyme 2 nM, peptide substrate 42 μM, 25° C., 85 minutes; values marked * are geometric mean of 5-16 determinations; read-out: CKIδ IC50 (nM), geometric mean of 2-4 determinations. As for the experimental part: The CK1δ kinase assay was performed in a standard buffer containing ATP at 10 μM, CK1δ enzyme at 2 nM, and the peptide substrate PLSRTLpSVASLPGL at 42 μM. The reaction was incubated at 25° C. for 85 minutes. Enzyme inhibition was performed in the presence of either 1 μL of CK1δ inhibitor, or 4% DMSO. Detection of luminescent output on a PerkinElmer EnVision plate reader (PerkinElmer, Waltham, Mass.) was performed as described for the Kinase-Glo Assay (Promega).
For orientation: Kinase-Glo measures the ATP left after a reaction by luminescence.

In a further test the target is CK1ε wild type enzyme (Homo sapiens, UniProt P49674). The experiment in a line: CK1ε kinase assay (Kinase-Glo luminescence). The format is biochemical. Particulars: ATP 10 μM, CK1ε wild type enzyme 2.5 nM, peptide substrate 42 μM, 25° C., 70 minutes; values marked * are geometric mean of 5-16 determinations; read-out: CKIε IC50 (nM), geometric mean of 2-4 determinations. As for the experimental part: The CK1ε kinase assay was performed in a standard buffer containing ATP at 10 μM, CK1ε wild type enzyme at 2.5 nM, and 42 μM concentration of the peptide substrate PLSRTLpSVASLPGL (Flotow et al., 1990). The reaction was incubated at 25° C. for 70 minutes. Enzyme inhibition was measured in the presence of 1 μL of the CK1ε inhibitor, or 4% DMSO. Detection was carried out as described for the Kinase-Glo Assay (Promega). Luminescent output was measured on the PerkinElmer EnVision plate reader (PerkinElmer, Waltham, Mass.).

Where a name gives a salt, the structure may show the parent alone.

CK1ε wild type enzyme, sequence (P49674 whole entry): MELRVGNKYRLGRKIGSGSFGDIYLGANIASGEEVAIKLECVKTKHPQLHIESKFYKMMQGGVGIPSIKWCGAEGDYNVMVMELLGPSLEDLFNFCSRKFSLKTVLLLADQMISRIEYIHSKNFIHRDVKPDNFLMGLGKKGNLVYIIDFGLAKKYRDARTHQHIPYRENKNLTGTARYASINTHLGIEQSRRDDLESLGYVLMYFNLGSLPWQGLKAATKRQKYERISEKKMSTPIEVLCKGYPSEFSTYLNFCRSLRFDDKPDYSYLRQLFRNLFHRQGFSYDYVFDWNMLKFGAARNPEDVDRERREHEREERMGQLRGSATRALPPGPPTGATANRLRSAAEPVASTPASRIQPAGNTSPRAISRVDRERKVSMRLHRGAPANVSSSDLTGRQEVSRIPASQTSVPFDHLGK
CK1δ, sequence (P48730 whole entry): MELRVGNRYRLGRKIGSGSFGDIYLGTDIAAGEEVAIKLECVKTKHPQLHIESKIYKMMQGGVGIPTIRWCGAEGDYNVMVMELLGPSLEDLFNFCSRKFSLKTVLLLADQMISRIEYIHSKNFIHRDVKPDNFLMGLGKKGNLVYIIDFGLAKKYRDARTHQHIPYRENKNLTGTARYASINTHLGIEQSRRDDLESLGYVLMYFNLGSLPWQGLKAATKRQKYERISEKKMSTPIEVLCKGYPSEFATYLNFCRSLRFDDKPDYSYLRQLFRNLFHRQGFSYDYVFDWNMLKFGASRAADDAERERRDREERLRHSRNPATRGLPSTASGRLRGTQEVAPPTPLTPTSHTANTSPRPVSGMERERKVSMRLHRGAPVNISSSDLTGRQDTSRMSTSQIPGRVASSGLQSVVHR

What is called IC50 is the midpoint of a concentration-inhibition curve. Consider `CNc1nccc(-c2c(-c3ccccc3)ncn2C2CCN(Cc3ccon3)CC2)n1` [Example 15, 4-{1-[1-(isoxazol-3-ylmethyl)piperidin-4-yl]-4-phenyl-1H-imidazol-5-yl}-N-methylpyrimidin-2-amine, hydrochloride salt], for which the IC50 was 18.6 nM at CK1δ and 76.1 nM on CK1ε wild type enzyme.
For `Nc1nccc(-c2c(-c3ccc(F)cc3)ncn2C2CCN(Cc3ccnnc3)CC2)n1` [Example 23, 4-{4-(4-fluorophenyl)-1-[1-(pyridazin-4-ylmethyl)piperidin-4-yl]-1H-imidazol-5-yl}pyrimidin-2-amine, trifluoroacetate salt] the same measures were 8.51 nM and 34.8 nM.
Taken in the same sequence, the figures for `Cc1cccc(CN2CCC(n3cnc(-c4ccc(F)cc4)c3-c3ccnc(N)n3)C2)n1` (stereo not shown) [Example 30, 4-[4-(4-fluorophenyl)-1-{1-[(6-methylpyridin-2-yl)methyl]pyrrolidin-3-yl}-1H-imidazol-5-yl]pyrimidin-2-amine] were 91.6 nM and 266 nM.
Regarding `COCCc1ncc(CN2CCC(n3cnc(-c4ccc(F)cc4)c3-c3ccncn3)C2)cn1` (stereo not shown) [Example 42, 5-({3-[4-(4-fluorophenyl)-5-pyrimidin-4-yl-1H-imidazol-1-yl]pyrrolidin-1-yl}methyl)-2-(2-methoxyethyl)pyrimidine, trifluoroacetate salt], the IC50 on CK1δ came to 679 nM; on CK1ε wild type enzyme, 1530 nM.
For `Cc1cc(CN2CCC(n3cnc(-c4ccc(F)cc4)c3-c3ccnc(N)n3)CC2)ccn1` [Example 21, 4-[4-(4-fluorophenyl)-1-{1-[(2-methylpyridin-4-yl)methyl]piperidin-4-yl}-1H-imidazol-5-yl]pyrimidin-2-amine, trifluoroacetate salt], the IC50 on CK1δ was determined as 13 nM; at CK1ε wild type enzyme, 59.8 nM.
Taken in the same sequence, the figures for `Nc1nccc(-c2c(-c3ccc(F)cc3)ncn2C2CCN(Cc3ccon3)CC2)n1` [Example 4, 4-{4-(4-Fluorophenyl)-1-[1-(isoxazol-3-ylmethyl)piperidin-4-yl]-1H-imidazol-5-yl}pyrimidin-2-amine] were below 4.17 nM and 18.9 nM.
For `Cn1nccc1CN1CCC(n2cnc(-c3ccc(F)cc3)c2-c2ccnc(N)n2)CC1` [Example 20, 4-[4-(4-fluorophenyl)-1-{1-[(1-methyl-1H-pyrazol-5-yl)methyl]piperidin-4-yl}-1H-imidazol-5-yl]pyrimidin-2-amine, trifluoroacetate salt] the same measures were 42.8 nM and 244 nM.
As to `Nc1nccc(-c2c(-c3ccccc3)ncn2C2CCN(Cc3ccon3)CC2)n1` [Example 13, 4-{1-[1-(Isoxazol-3-ylmethyl)piperidin-4-yl]-4-phenyl-1H-imidazol-5-yl}pyrimidin-2-amine, hydrochloride salt], the figures for the IC50 on CK1δ and at CK1ε wild type enzyme were 8.22 nM and 40.9 nM, respectively.
Taken in the same sequence, the figures for `Nc1nccc(-c2c(-c3ccc(F)cc3)ncn2C2CCN(Cc3ncccn3)CC2)n1` [Example 3, 4-{4-(4-Fluorophenyl)-1-[1-(pyrimidin-2-ylmethyl)piperidin-4-yl]-1H-imidazol-5-yl}pyrimidin-2-amine] were 27.8 nM and 116 nM.
Take `c1ccc(-c2ncn(C3CCN(Cc4ncccn4)CC3)c2-c2ccncn2)cc1` [Example 11, 2-{[4-(4-Phenyl-5-pyrimidin-4-yl-1H-imidazol-1-yl)piperidin-1-yl]methyl}pyrimidine]: the IC50 is 790 nM at CK1δ and above 3660 nM on CK1ε wild type enzyme.
For `CNc1nccc(-c2c(-c3ccc(F)cc3)ncn2C2CCN(Cc3ccon3)CC2)n1` [Example 5, 4-{4-(4-Fluorophenyl)-1-[1-(isoxazol-3-ylmethyl)piperidin-4-yl]-1H-imidazol-5-yl}-N-methylpyrimidin-2-amine] the same measures were 6.86 nM and 32.3 nM.
Taken in the same sequence, the figures for `C[C@H](c1ccon1)N1CCC(n2cnc(-c3ccc(F)cc3)c2-c2ccncn2)CC1` (single isomer, unassigned) [Example 9] were 281 nM and 1360 nM.
In the case of `Cc1c(CN2CCC(n3cnc(-c4ccc(F)cc4)c3-c3ccncn3)C2)nc2ccccn12` (stereo not shown) [Example 41, 2-({3-[4-(4-fluorophenyl)-5-pyrimidin-4-yl-1H-imidazol-1-yl]pyrrolidin-1-yl}methyl)-3-methylimidazo[1,2-a]pyridine, trifluoroacetate salt], the figures for the IC50 on CK1δ and on CK1ε wild type enzyme were 595 nM and 1990 nM, respectively.
For `c1ccc(-c2ncn(C3CCN(Cc4ccon4)CC3)c2-c2ccncn2)cc1` [Example 16, 4-{1-[1-(isoxazol-3-ylmethyl)piperidin-4-yl]-4-phenyl-1H-imidazol-5-yl}pyrimidine] the same measures were 42.8 nM and 327 nM.
Regarding `Nc1nccc(-c2c(-c3ccc(F)cc3)ncn2C2CCN(Cc3cncs3)CC2)n1` [Example 19, 4-{4-(4-fluorophenyl)-1-[1-(1,3-thiazol-5-ylmethyl)piperidin-4-yl]-1H-imidazol-5-yl}pyrimidin-2-amine, trifluoroacetate salt], the IC50 came to 26.8 nM at CK1δ and 99.9 nM on CK1ε wild type enzyme.
Consider `Fc1ccc(-c2ncn(C3CCN(Cc4cnc5ccnn5c4)C3)c2-c2ccncn2)cc1` (stereo not shown) [Example 40, 6-({3-[4-(4-fluorophenyl)-5-pyrimidin-4-yl-1H-imidazol-1-yl]pyrrolidin-1-yl}methyl)pyrazolo[1,5-a]pyrimidine, trifluoroacetate salt], for which the concentration for half-maximal inhibition (IC50) at CK1δ stood at 178 nM; at CK1ε wild type enzyme, 798 nM.
As for `Cc1nc2ccccc2nc1CN1CCC(n2cnc(-c3ccc(F)cc3)c2-c2ccnc(N)n2)CC1` [Example 17, 4-[4-(4-fIuorophenyl)-1-{1-[(3-methylquinoxalin-2-yl)methyl]piperidin-4-yl}-1H-imidazol-5-yl]pyrimidin-2-amine, trifluoroacetate salt], the IC50 at CK1δ came to 32.1 nM; at CK1ε wild type enzyme it was 144 nM.
Take `Cc1cc(C)c(CN2CCC(n3cnc(-c4ccc(F)cc4)c3-c3ccnc(N)n3)C2)cn1` (stereo not shown) [Example 37, 4-[1-{1-[(4,6-dimethylpyridin-3-yl)methyl]pyrrolidin-3-yl}-4-(4-fluorophenyl)-1H-imidazol-5-yl]pyrimidin-2-amine]: the IC50 was determined as 46.6 nM on CK1δ and 124 nM on CK1ε wild type enzyme.
Take `COc1cc(CN2CCC(n3cnc(-c4ccc(F)cc4)c3-c3ccnc(N)n3)CC2)ccn1` [Example 25, 4-[4-(4-fluorophenyl)-1-{1-[(2-methoxypyridin-4-yl)methyl]piperidin-4-yl}-1H-imidazol-5-yl]pyrimidin-2-amine, trifluoroacetate salt]: the IC50 stood at 84.3 nM at CK1δ and 393 nM at CK1ε wild type enzyme.
For `Nc1nccc(-c2c(-c3ccc(F)cc3)ncn2C2CCN(Cc3ccon3)C2)n1` (stereo not shown) [Example 7, 4-{4-(4-Fluorophenyl)-1-[1-(isoxazol-3-ylmethyl)pyrrolidin-3-yl]-1H-imidazol-5-yl}pyrimidin-2-amine] the same measures were 67.8 nM and 193 nM.
Taken in the same sequence, the figures for `Nc1nccc(-c2c(-c3ccc(F)cc3)ncn2C2CN(Cc3ncccn3)C2)n1` [Example 1, 4-{4-(4-Fluorophenyl)-1-[1-(pyrimidin-2-ylmethyl)azetidin-3-yl]-1H-imidazol-5-yl}pyrimidin-2-amine] were 163 nM and 536 nM.
Taken in the same sequence, the figures for `CNc1nccc(-c2c(-c3ccccc3)ncn2C2CCN(Cc3ncccn3)CC2)n1` [Example 12, N-Methyl-4-{4-phenyl-1-[1-(pyrimidin-2-ylmethyl)piperidin-4-yl]-1H-imidazol-5-yl}pyrimidin-2-amine] were 191 nM and 660 nM.
For `Cc1ncccc1CN1CCC(n2cnc(-c3ccc(F)cc3)c2-c2ccnc(N)n2)C1` (stereo not shown) [Example 32, 4-[4-(4-fluorophenyl)-1-{1-[(2-methylpyridin-3-yl)methyl]pyrrolidin-3-yl}-1H-imidazol-5-yl]pyrimidin-2-amine], the IC50 at CK1δ amounted to 61.1 nM; at CK1ε wild type enzyme, 150 nM.
Taken in the same sequence, the figures for `COc1ncccc1CN1CCC(n2cnc(-c3ccc(F)cc3)c2-c2ccnc(N)n2)CC1` [Example 26, 4-[4-(4-fluorophenyl)-1-{1-[(2-methoxypyridin-3-yl)methyl]piperidin-4-yl}-1H-imidazol-5-yl]pyrimidin-2-amine, trifluoroacetate salt] were 51.9 nM and 238 nM.
Turning to `Nc1nccc(-c2c(-c3ccc(F)cc3)ncn2C2CCN(Cc3ccc(C(F)(F)F)nc3)CC2)n1` [Example 18, 4-[4-(4-fluorophenyl)-1-(1-{[6-(trifluoromethyl)pyridin-3-yl]methyl}piperidin-4-yl)-1H-imidazol-5-yl]pyrimidin-2-amine, trifluoroacetate salt], the IC50 at CK1δ was found to be 80.7 nM; at CK1ε wild type enzyme, 394 nM.
Taken in the same sequence, the figures for `Fc1ccc(-c2ncn(C3CCN(Cc4cn5ccccc5n4)C3)c2-c2ccncn2)cc1` (stereo not shown) [Example 39, 2-({3-[4-(4-fluoro-phenyl)-5-pyrimidin-4-yl-1H-imidazol-1-yl]pyrrolidin-1-yl}methyl)imidazo[1,2-a]pyridine, trifluoroacetate salt] were 211 nM and 644 nM.
